This is an account of results in article PMC8793064, “Bioassay Guided Fractionation of Senna singueana and Its Potential for Development of Poultry Phytogenic Feed Additives” (Frontiers in Veterinary Science, 2022).

A word on the MIC: it is the lowest concentration that inhibits growth of the organism. Broadly, the IC50 is the concentration that gives 50% inhibition.

The structures appear in SMILES notation. Converted amounts (≈) assume the structure as drawn. Marks after values point to notes of the source that are not given here.

The nature of one data set: DPPH free radical assay. The conditions noted are these: for DPPH IC50: 30 min, 516 nm; for DPPH IC50 obtained after log transformation of data: value in brackets, data not normally distributed. Here is the method:
The antioxidant activities of the samples were measured in terms of radical scavenging ability using the stable radical (DPPH) method of Brand-Williams et al. ([12]) with some modifications. Methanol solutions (40 μl) of the samples and positive controls (Trolox and ascorbic acid) at various concentrations (0.1–100 μg/ml) were prepared by serial dilution in a 96 well-microtitre plate. One hundred and sixty (160) μl of DPPH in methanol adjusted to an absorbance between 0.9 and 1.0 was added and the plates were incubated in the dark at room temperature (25°C) for 30 min. Absorbance was measured against a blank with a microtitre plate reader (Epoch, BioTek, United States) at 516 nm. The DPPH scavenging effect was determined using the following formula:
(1) DPPH Scavenging Effect(%)=[(A1-A2/A1)] × 100
Where A1 is the absorbance of the control reaction and A2 is the absorbance in the presence of the sample. Trolox and ascorbic acid were used as controls. The experiments were conducted twice.
A general note: The DPPH test is a chemical assay of radical scavenging.

A short description of data set [1]: ABTS free-radical-scavenging assay. The conditions noted are these: for ABTS IC50: 6 min, 734 nm; for ABTS IC50 obtained after log transformation of data: value in brackets, data not normally distributed. Here is the method:
The free radical-scavenging activity as a measure of hydrogen donating capacity was determined by using the ABTS cation decolourization method of Re et al. ([16]) with some modifications. ABTS radical solution (7 μM) was prepared by dissolving 1.32 × 10^4 μg of ABTS in 10 ml of 50% methanolic solution and 7.68 × 10^4 μg of potassium persulphate ([…]) in 10 ml of distilled water. The two solutions were mixed together and made up to 200 ml with 50% methanolic solution, and kept in the dark at room temperature, 25°C for 12 h. Prior to running the assay, the ABTS radical solution was diluted with 50% methanolic solution to an absorbance between 0.7 and 0.8 at 734 nm. The samples were serially diluted (40 μl) (0.1–100 μg/ml) in 96 well-microtitre plates and 160 μl of ABTS radical solution was added to each well. The absorbance readings were taken after exactly 6 min of reaction and blanks were prepared using the respective samples without ABTS radical. The scavenging effect was calculated using the following formula:
(2) ABTS Scavenging Effect(%)=[(A1-A2/A1)] × 100
The IC50 values were calculated from a graph plotted as inhibition percentage against the concentration. A Trolox standard curve was drawn by plotting percentage inhibition of the ABTS+ radical against the concentration of Trolox. Data from the test samples were analysed in a similar manner.

Another data set in a line: in vitro. The conditions noted are these: monkey.
For data set [2], the system named is Escherichia coli (ATCC 25922). Put plainly: Antibacterial TLC bioautography. Type of data set: cell-based. The conditions noted are these: E. coli. From the text:
(§1) The compounds in the crude extract and fractions, as well as the purified compounds were developed as described above but the bioautograms were sprayed with respective cultures. After development, the TLC plates were dried overnight in a stream of cold air and sprayed with an actively growing concentrated suspension of strains of either Staphylococcus aureus (ATCC 29213), Salmonella enterica subsp. enterica var. Enteritidis (S. Enteritidis ATCC 13076) or Escherichia coli (ATCC 25922). The plates were dried and incubated overnight at 37°C in closed, sterile, humidified plastic containers to allow growth of the bacteria on the plates. After incubation, the plates were sprayed with a sterile 2 mg/ml solution of p-iodonitrotetrazolium (INT, Sigma-Aldrich) salt and incubated for a further 1 h. The presence of clear zones on the chromatogram after the incubation period indicated inhibition of growth as the INT is metabolised to a coloured formazan product by the actively growing cells ([11]). The retention factors of the bands of inhibition were calculated.

For data set [3], the system named is Staphylococcus aureus (ATCC 29213). Put plainly: Antibacterial TLC bioautography. Type of data set: cell-based. The conditions noted are these: S. aureus.
Source text: as §1

The subject of data set [4] is S. Enteritidis ATCC 13076. The data set can be described thus: Antibacterial TLC bioautography. It is filed as cell-based, Salmonella enterica subsp. enterica var. Enteritidis.
Source text: as §1

A short description of data set [5]: Qualitative antioxidant activity, TLC sprayed with DPPH. The conditions noted are these: TLC sprayed with DPPH 0.2% w/v. Here is the method:
TLC plates (10 × 20 cm, aluminium-backed, Merck, silica gel 60 F254) were loaded with 10 μl of the crude extract, fraction or compound (re-dissolved to 10 mg/ml) and dried before being developed in two mobile phase systems (CEF and EMW). […] A change of colour from the DPPH purple background to yellow indicated the presence of antioxidant compounds ([13]).

The subject of data set [6] is Escherichia coli (clinical strain). The data set can be described thus: MIC by serial two-fold microdilution. The conditions noted are these: 24 h. It is filed as cell-based. Here is the method: (§2) The four bacterial cultures were prepared by inoculating a single colony from an agar plate into 10 ml of sterilised Mueller-Hinton (MH) broth (Merck, South Africa) and incubating at 37°C in an MRC orbital shaker (150 rpm) incubator (United Scientific, South Africa) for 18 to 20 h prior to the experiment. Following incubation, each bacterial strain was diluted in MH broth (Merck, South Africa) and the absorbance was measured at a wavelength of 560 nm using a spectrophotometer (Epoch microplate reader: BioTek, United States).
(§3) The assay was performed in microtitre plates (Lasec, South Africa) by adding 100 μl of sterile water to all wells. In the first row, 100 μl of extract, fraction or compound were added in triplicate and serially diluted two-fold to the last well, from which 100 μl were then discarded. Gentamicin (Virbac, South Africa) was used as a positive control and a sterility control containing only water was included. This was followed by addition of 100 μl of the bacterial suspension to each well (except for the sterility control). The plates were sealed with parafilm and incubated at 37°C (IncoTherm, Labotec). After 24 h, 40 μl of a 0.2 mg/ml solution of INT was added to each well and the plate further incubated for at least half an hour to ensure adequate colour development. INT is a dehydrogenase activity detecting reagent, which is converted into an intensely coloured red-purple formazan by metabolically active micro-organisms. Inhibition of growth was indicated by a clear solution or a noticeable decrease in colour reaction. This value was taken as the MIC of the sample. The experiments were conducted twice.
For orientation: Dilution methods test growth across graded concentrations, often in twofold steps.

In data set [7] the test system is Escherichia coli (ATCC 25922). The data set can be described thus: MIC by serial two-fold microdilution. The conditions noted are these: ATCC25922, 24 h. Type of data set: cell-based. Here is the method: as §2, §3
The subject of data set [8] is Staphylococcus aureus (ATCC 29213). The data set can be described thus: MIC by serial two-fold microdilution. The conditions noted are these: ATCC29213, 24 h. It is filed as cell-based. Here is the method:
as §2, §3

The test system of data set [9] is three ATCC strains and E. coli clinical strain. The data set can be described thus: MIC by microdilution, stated over the whole panel of strains. It is filed as cell-based. Here is the method:
as §2
as §3, with “INT is a dehydrogenase activity detecting reagent, which is converted into an intensely coloured red-purple formazan by metabolically active micro-organisms. Inhibition of growth was indicated by a clear solution or a noticeable decrease in colour reaction. This value was taken as the MIC of the sample. The experiments were conducted twice.” left out

In another data set the target is T1, 15-LOX (Glycine max, UniProt P08170).
T1 construct: purchased Sigma Aldrich, Germany
T1 sequence (P08170 1-839): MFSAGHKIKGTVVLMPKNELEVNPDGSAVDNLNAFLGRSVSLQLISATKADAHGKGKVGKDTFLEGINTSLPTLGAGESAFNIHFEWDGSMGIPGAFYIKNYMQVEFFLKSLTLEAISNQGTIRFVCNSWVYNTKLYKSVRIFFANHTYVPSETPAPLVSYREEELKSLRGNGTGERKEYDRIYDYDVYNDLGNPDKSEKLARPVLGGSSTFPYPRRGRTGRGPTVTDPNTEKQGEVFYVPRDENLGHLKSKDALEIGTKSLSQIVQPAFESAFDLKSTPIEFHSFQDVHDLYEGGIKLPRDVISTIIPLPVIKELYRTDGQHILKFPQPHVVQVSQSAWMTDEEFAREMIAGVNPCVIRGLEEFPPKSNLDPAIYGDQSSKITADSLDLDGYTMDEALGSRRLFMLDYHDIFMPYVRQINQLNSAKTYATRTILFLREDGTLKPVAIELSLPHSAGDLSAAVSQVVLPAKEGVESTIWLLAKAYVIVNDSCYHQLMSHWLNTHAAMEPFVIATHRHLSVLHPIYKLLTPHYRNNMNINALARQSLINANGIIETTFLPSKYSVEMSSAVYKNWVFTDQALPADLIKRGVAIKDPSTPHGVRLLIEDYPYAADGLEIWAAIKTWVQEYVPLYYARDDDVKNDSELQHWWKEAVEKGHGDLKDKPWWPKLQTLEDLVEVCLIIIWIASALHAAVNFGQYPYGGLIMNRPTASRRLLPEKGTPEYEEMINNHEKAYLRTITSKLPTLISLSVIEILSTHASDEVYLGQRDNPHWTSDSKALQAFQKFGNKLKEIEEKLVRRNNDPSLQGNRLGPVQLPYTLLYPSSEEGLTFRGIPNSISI
Put plainly: biochemical.

The test system of data set [10] is Salmonella Enteritidis (ATCC 13076). The data set can be described thus: MIC by serial two-fold microdilution. It is filed as cell-based, Salmonella enterica subsp. enterica var. Enteritidis. The conditions noted are these: Salmonella enterica, 24 h. Here is the method: as §2
as §3, with “INT is a dehydrogenase activity detecting reagent, which is converted into an intensely coloured red-purple formazan by metabolically active micro-organisms. Inhibition of growth was indicated by a clear solution or a noticeable decrease in colour reaction. This value was taken as the MIC of the sample. The experiments were conducted twice.” left out

Procedure for 15-LOX: Lipoxygenase (LOX) activity of the samples was determined spectrophotometrically according to published methods ([17], [18]). LOX inhibition was determined spectrophotometrically based on the formation of the complex Fe3+/xylenol orange as described by Pinto et al. ([19]). Briefly, 20 μl of Tris-HCl buffer (pH 7.4) was added to all wells of the 96-well-microplates. This was followed by the addition of 20 μl of the fractions (1 or 0.5 mg/ml) in the first row of the plate which was serially diluted. […] After the serial dilution, 40 μl of the lipoxygenase enzyme (Sigma Aldrich, Germany) was added to each well and the plates were incubated at room temperature 25°C for 5 min. After incubation, 40 μl of linoleic acid (final concentration, 140 μM) prepared in Tris-HCl buffer (50 mM, pH 7.4) was added to the well (except for the blanks). The plates were incubated at 25°C for 20 min in the dark. After incubation, 100 μl of freshly prepared ferrous oxidation–xylenol orange (FOX) reagent [sulfuric acid (30 mM), xylenol orange (100 μM), iron (II) sulphate (100 μM) in methanol/water (9:1)] was added to all wells. The plates were further incubated at 25°C for 30 min in the dark, 40 μl of linoleic acid was then added to the blanks. The absorbance was measured at 560 nm. […] The experiments were conducted twice.
Procedure for Vero monkey kidney cells: (§4) The cytotoxic effect of the fractions and the isolated compounds was determined using an in vitro assay with Vero monkey kidney cells ([15]). The growth medium used was Minimal Essential Medium (MEM, Whitehead Scientific) supplemented with 0.1% gentamicin (Virbac) and 5% foetal calf serum (Highveld Biological). The cells were seeded at a density of 10 000 cells/per well in 96-well-microtitre plates. The plates were incubated at 37°C in a 5% CO2 incubator in a humidified environment for 24 h to allow cell attachment.
(§5) After incubation, the medium was aspirated and replaced with fresh MEM. The fractions/compounds (100 μl) of varying concentrations were added to the wells containing cells. The anticancer compound doxorubicin (Pfizer Laboratories) was used as a positive control. A suitable blank control with equivalent concentrations of fresh medium was also included and the plates were further incubated for 48 h in a CO2 incubator. Subsequently, the medium in each well was aspirated from the cells, which were washed with phosphate-buffered saline (PBS) and fresh medium was then added to each well. A 30 μl aliquot of MTT (5 mg/ml in PBS) was added to each well and the plates were incubated at 37°C for 4 h. The medium was then aspirated from wells and 50 μl DMSO was added to each well to solubilise the formed formazan crystals. The absorbance was measured on a BioTek Synergy microtitre plate reader at 570 nm. Cell growth inhibition for each extract was expressed in terms of LC50 values. […] The cytotoxicity assay was repeated thrice.
Procedure for in vitro: as §4, §5

`O=C1O[C@H]([C@@H](O)CO)C(O)=C1O` [Ascorbic acid, ascorbic acid]: in the data set “DPPH free radical assay”, the “DPPH IC50” value was found to be 1.97 ± 0.21 µg/mL and the “DPPH IC50 obtained after log transformation of data” value is recorded as 2.45 μg/ml. Further, in data set [1], the “ABTS IC50” value came to 1.90 ± 0.07 µg/mL and the “ABTS IC50 obtained after log transformation of data” value turned out to be 2.45 μg/ml.

In “in vitro”, `O=c1cc(-c2ccc(O)c(O)c2)oc2cc(O)cc(O)c12` [Compound 1, luteolin] showed a CC50 at 48 h of 92.9 ± 1.7 µg/mL (≈ 325 µM). Further, the “antibacterial activity in bioautography” value in [2], in [3] and in data set [4] was “active” each time. For the same compound, the “DPPH IC50” value in “DPPH free radical assay” is on record as 5.92 ± 0.64^a μg/ml. Besides, the “antioxidant activity in bioautography (DPPH bleaching)” value in data set [5] is given as “antioxidant activity”. Moreover, the cytotoxicity class result in the data set on Vero monkey kidney cells was “moderate”. The MIC in data set [6] is 156 µg/mL (≈ 545 µM); in data set [7], 156 µg/mL (≈ 545 µM); in [8], 625 µg/mL (≈ 2180 µM); in [9] (Escherichia coli, three ATCC strains and E. coli clinical strain, read-out: MIC values over the tested strains), greater than 100 µg/mL. Moreover, the antibacterial activity class result in [9] (all the tested bacterial strains) was “weak (values >625 μg/ml indicate weak activity)”. In addition, in [1], the “ABTS IC50” value is 8.17 ± 0.80^a μg/ml. Also, the midpoint of inhibition at 15-LOX, the IC50, lay at 25.8 µM.

Regarding `COc1cccc2c1C(=O)c1c(O)c3c(c(O)c1C2=O)C[C@@](O)(C(=O)CO)C[C@@H]3O[C@H]1C[C@H](N)[C@H](O)[C@H](C)O1` [Doxorubicin, doxorubicin, reference compound], in “in vitro”, the CC50 at 48 h amounted to 9 ± 1.28 µg/mL (≈ 16.6 µM).

For `CNC(C)C1CCC(N)C(OC2C(N)CC(N)C(OC3OCC(C)(O)C(NC)C3O)C2O)O1` (stereo not drawn) [Gentamicin, reference compound], the minimal inhibitory concentration (MIC) in [10], in data set [6], in [7] and in data set [8] was 20 µg/mL (≈ 41.9 µM) each time.

For the compound `Cc1c(C)c2c(c(C)c1O)CCC(C)(C(=O)O)O2` (stereo not drawn) [Trolox], in the data set “DPPH free radical assay”, the “DPPH IC50” value was 3.19 ± 0.32 µg/mL and the “DPPH IC50 obtained after log transformation of data” value is on record as 4.02 μg/ml. Further, in data set [1], the “ABTS IC50” value amounted to 2.21 ± 0.30 µg/mL and the “ABTS IC50 obtained after log transformation of data” value is 2.76 μg/ml.
